Assays:
[1] = Stability in hank's balanced salt solution at 15 uM after 20 mins; assay type: physicochemical; conditions: read-out: Stability
[2] = Stability in hank's balanced salt solution at 15 uM after 60 mins; assay type: physicochemical; conditions: read-out: Stability
[3] = Stability in hank's balanced salt solution at 15 uM after 120 mins; assay type: physicochemical; conditions: read-out: Stability
[4] = Stability in hank's balanced salt solution at 15 uM after 180 mins; assay type: physicochemical; conditions: read-out: Stability
[5] = Stability in hank's balanced salt solution at 15 uM after 24 hrs; assay type: physicochemical; conditions: read-out: Stability
[6] = Apparent permeability from apical to basolateral side in human Caco-2 cells; assay type: ADME, cell-based; conditions: read-out: permeability
[7] = Apparent permeability from apical to basolateral side in human Caco-2 cells assessed as drug recovery; assay type: ADME, cell-based; conditions: read-out: Activity
[8] = Apparent permeability from basolateral to apical side in human Caco-2 cells; assay type: ADME, cell-based; conditions: read-out: permeability
[9] = Apparent permeability from basolateral to apical side in human Caco-2 cells assessed as drug recovery; assay type: ADME, cell-based; conditions: read-out: Activity
[10] = Apparent permeability across PAMPA membrane; assay type: ADME; conditions: read-out: permeability
[11] = Apparent permeability across PAMPA membrane assessed as drug recovery; assay type: ADME; conditions: read-out: Activity
[12] = Ratio of permeability from basolateral to apical side over apical to basolateral side in human Caco-2 cells; assay type: ADME, cell-based

| SMILES | remaining at 20 min, 15 µM [1] | remaining at 1 h, 15 µM [2] | remaining at 2 h, 15 µM [3] | remaining at 3 h, 15 µM [4] | remaining at 24 h, 15 µM [5] | Papp A→B [6] | recovery [7] | Papp B→A [8] | recovery [9] | Papp [10] | recovery [11] | efflux ratio [12] |
| --- | --- | --- | --- | --- | --- | --- | --- | --- | --- | --- | --- | --- |
| COc1ccc(-c2cc(=O)c3c(O)cc(O)cc3o2)cc1O [DIOSMETIN] | 100% | 96.5% | 101% | 98.4% | 50.9% | 76.2 ×10⁻⁶ cm/s | 59.1% | 12.4 ×10⁻⁶ cm/s | 66.8% | 76.1 ×10⁻⁶ cm/s | 82% | 0.2 |
| O=C1C[C@@H](c2ccc(O)cc2)Oc2cc(O)cc(O)c21 [NARINGENIN] | – | 99.4% | 100% | 91.2% | 79.9% | 37.8 ×10⁻⁶ cm/s | 54.4% | 51.4 ×10⁻⁶ cm/s | 93% | 25.7 ×10⁻⁶ cm/s | 87% | – |
| COc1ccc(-c2cc(=O)c3c(O)cc(O[C@@H]4O[C@H](CO[C@@H]5O[C@@H](C)[C@H](O)[C@@H](O)[C@H]5O)[C@@H](O)[C@H](O)[C@H]4O)cc3o2)cc1O [DIOSMIN] | 103% | – | 88.6% | 78.4% | 0% | – | 61.9% | – | 68.9% | – | – | – |
| COc1ccc([C@@H]2CC(=O)c3c(O)cc(O[C@@H]4O[C@H](CO[C@@H]5O[C@@H](C)[C@H](O)[C@@H](O)[C@H]5O)[C@@H](O)[C@H](O)[C@H]4O)cc3O2)cc1O [HESPERIDIN] | 99.8% | – | 87.9% | 86.3% | 84.9% | – | 76.9% | – | 80.2% | – | – | – |
| COc1ccc([C@@H]2CC(=O)c3c(O)cc(O)cc3O2)cc1O [HESPERETIN] | 94.5% | 99.9% | 91.1% | 90.8% | 80% | 47.1 ×10⁻⁶ cm/s | 34.1% | 27 ×10⁻⁶ cm/s | 70.1% | 35.7 ×10⁻⁶ cm/s | 84% | 0.6 |
| C[C@@H]1O[C@@H](O[C@H]2[C@H](Oc3cc(O)c4c(c3)O[C@H](c3ccc(O)cc3)CC4=O)O[C@H](CO)[C@@H](O)[C@@H]2O)[C@H](O)[C@H](O)[C@H]1O [NARINGIN] | 98.3% | – | 92.2% | 90.4% | 88.5% | – | 85.7% | – | 88.4% | – | – | – |

Reference: ChEMBL document CHEMBL1157141, “Prediction of intestinal absorption and metabolism of pharmacologically active flavones and flavanones” (Bioorg Med Chem, 2008)
